Entries after “also recorded” stand apart in the source; their conditions may differ. Read-outs that look alike come from different tables or passages of the source.
Tests used:
Obese Zucker rats [1] = conditions: rat, in vivo
Obese Zucker rats [2] = experiment: In vivo assessment in obese Zucker rats: body weight and food intake; conditions: for Food Intake 5 wks / Food Intake 7 wks: obese Zucker rats, daily 400 μg Cr(III)/kg, mean; for Food Intake 5 wks: at 5 weeks; for Food Intake 7 wks: at 7 weeks
Obese Zucker rats [3] = experiment: In vivo assessment in obese Zucker rats: blood lipid profile (total cholesterol, triglycerides, HDL); conditions: daily 400 μg Cr(III)/kg, 8 weeks, mean
Obese Zucker rats [4] = experiment: In vivo assessment in obese Zucker rats: other vascular inflammation markers (cAMP, TNFα, IL-6, OxyDNA); conditions: for IL-6 / TNFα / cAMP / OxyDNA: obese Zucker rats, daily 400 μg Cr(III)/kg, 8 weeks, mean ± SE; for OxyDNA: oxidative DNA damage
Obese Zucker rats [5] = experiment: In vivo assessment in obese Zucker rats: vascular inflammation markers (MCP-1, CRP, RBP-4, leptin, ICAM, adiponectin); conditions: for Leptin / RBP-4 / Adiponectin / CRP / ICAM / MCP-1 / C-reactive protein, effect in words / adiponectin levels, effect in words / intracellular adhesion molecule, effect in words / monocyte chemotactic protein-1, effect in words: obese Zucker rats, 8 weeks; for Leptin / RBP-4 / Adiponectin / CRP / ICAM / MCP-1: daily 400 μg Cr(III)/kg, mean; for Adiponectin / CRP / ICAM / MCP-1: plasma, ELISA; for C-reactive protein, effect in words / adiponectin levels, effect in words / intracellular adhesion molecule, effect in words / monocyte chemotactic protein-1, effect in words: effect of administration
Obese Zucker rats [6] = experiment: In vivo assessment in obese Zucker rats: key biological parameters (fasting glucose, HbA1c, vitamin C, GSH, RBC lipid peroxidation); conditions: for RBC Lipid Peroxidase: malondialdehyde by thiobarbituric acid; for RBC Lipid Peroxidase / Fasting Glucose / GSH / HbA1c / Vitamin C / blood vitamin C levels, effect in words / fasting glucose, effect in words / glycosylated hemoglobin, effect in words / red blood cell lipid peroxidation, effect in words: obese Zucker rats, 8 weeks; for RBC Lipid Peroxidase / Fasting Glucose / GSH / HbA1c / Vitamin C: daily 400 μg Cr(III)/kg, mean; for Fasting Glucose: fasted overnight; for Vitamin C: plasma; for blood vitamin C levels, effect in words / fasting glucose, effect in words / glycosylated hemoglobin, effect in words / red blood cell lipid peroxidation, effect in words: effect of administration
Obese Zucker rats [7] = experiment: In vivo assessment in obese Zucker rats: clinical chemistry (AP, BUN, CRT, AST, ALT)
[8] = men and women; cited from earlier work
[9] = compared to chromium nicotinate-glycine-cysteine-glutamic acid GTF complex of Toepfer et al.
[10] = listed as Chromium dinicocysteinate
[11] = listed as chromium dinicocysteinate
[12] = over chromium nicotinate, chromium picolinate and chromium histidinate

Compound: N=C(N)NCCC[C@H](N)C(=O)O [Arg, Arginine, reference compound]
- ALT (Alanine Aminotransferease) (Obese Zucker rats [1]): 179.20 u/L
- AP (Alkaline phosphatase) (Obese Zucker rats [1]): 35.50 u/L
- AST (Aspartate Aminotransferase) (Obese Zucker rats [1]): 276.80 u/L
- BUN (Blood Urea Nitrogen) (Obese Zucker rats [1]): 21.00 mg/dL
- CRT (Creatinine) (Obese Zucker rats [1]): 0.40 mg/dL
- Total Bilirubin (Obese Zucker rats [1]): 0.00 mg/dL
- Food Intake 5 wks (Obese Zucker rats [2]): 37.73 g/day
- Food Intake 7 wks (Obese Zucker rats [2]): 46.80 g/day
- HDL (Obese Zucker rats [3]): 68.69 mg/dL
- Total Chol/HDL (Obese Zucker rats [3]): 2.86 ratio
- Total Cholesterol (Obese Zucker rats [3]): 173.96 mg/dL
- Triglyceride (Obese Zucker rats [3]): 485.74 mg/dL
- IL-6 (Obese Zucker rats [4]): 97.80 ± 0.93 pg/mL
- TNFα (Obese Zucker rats [4]): 25.45 ± 0.93 pg/mL
- cAMP (Obese Zucker rats [4]): 34.98 ± 0.92 pmol/mL
- OxyDNA (Obese Zucker rats [4]): 62.90 ± 2.71 ng/mL
- Leptin (Obese Zucker rats [5]): 431.72 pg/mL
- RBP-4 (Obese Zucker rats [5]): 47211.67 ng/mL
- Adiponectin (Obese Zucker rats [5]): 9958.63 ng/mL
- CRP (Obese Zucker rats [5]): 617.34 ng/mL
- ICAM (Obese Zucker rats [5]): 17940.91 pg/mL
- MCP-1 (Obese Zucker rats [5]): 3878.85 pg/mL
- RBC Lipid Peroxidase (Obese Zucker rats [6]): 2.23 nmol/mL
- Fasting Glucose (Obese Zucker rats [6]): 446.60 mg/dL
- GSH (Obese Zucker rats [6]): 4.77 µmol/g
- HbA1c (Obese Zucker rats [6]): 15.88%
- Vitamin C (Obese Zucker rats [6]): 0.14 mg %

Compound: Chromium Dinicocysteinate [Cr(nic)2Cys]
- food intake vs GTF complex, in words (Obese Zucker rats [2]; [9]): reduced
- food intake, effect in words (Obese Zucker rats [2]; effect of administration): reduction
- Food Intake 5 wks (Obese Zucker rats [2]): 34.43 g/day
- Food Intake 7 wks (Obese Zucker rats [2]): 38.62 g/day
- alkaline phosphatase activities, effect in words (Obese Zucker rats [7]; Zucker diabetic fatty rats, supplemented group): reduces
- ALT vs GTF complex, in words (Obese Zucker rats [7]; [9]): decreased levels
- AST vs GTF complex, in words (Obese Zucker rats [7]; [9]): decreased levels
- blood creatinine, effect in words (Obese Zucker rats [7]; effect of administration): reducing
- ALT (Alanine Aminotransferease) (Obese Zucker rats [7]; obese Zucker rats, mean ± SE): 99.00 u/L
- AP (Alkaline phosphatase) (Obese Zucker rats [7]; obese Zucker rats, mean ± SE): 35.15 u/L
- Anion Gap (Obese Zucker rats [7]; obese Zucker rats, mean ± SE): 29.62
- BUN (Blood Urea Nitrogen) (Obese Zucker rats [7]; obese Zucker rats, mean ± SE): 18.23 mg/dL
- CRT (Creatinine) (Obese Zucker rats [7]; obese Zucker rats, mean ± SE): 0.41 mg/dL
- Total Bilirubin (Obese Zucker rats [7]; obese Zucker rats, mean ± SE): 0.05 mg/dL
- HDL (Obese Zucker rats [3]): 66.46 mg/dL
- Total Cholesterol (Obese Zucker rats [3]): 188.46 mg/dL
- Triglyceride (Obese Zucker rats [3]): 550.89 mg/dL
- OxyDNA vs GTF complex, in words (Obese Zucker rats [4]; [9]): decreased levels
- TNFα vs GTF complex, in words (Obese Zucker rats [4]; [9]): decreased levels
- IL-6 (Obese Zucker rats [4]): 95.02 ± 1.99 pg/mL
- TNFα (Obese Zucker rats [4]): 17.72 ± 3.35 pg/mL
- cAMP (Obese Zucker rats [4]): 33.26 ± 2.61 pmol/mL
- TNFα vs comparators, in words (Obese Zucker rats [4]; over chromium picolinate and chromium histidinate): lowered levels
- OxyDNA (Obese Zucker rats [4]): 46.92 ± 2.24 ng/mL
- adiponectin vs GTF complex, in words (Obese Zucker rats [5]; [9]): increased levels
- C-reactive protein, effect in words (Obese Zucker rats [5]; [10]): reductions
- adiponectin levels, effect in words (Obese Zucker rats [5]; [10]): elevation
- intracellular adhesion molecule, effect in words (Obese Zucker rats [5]; [10]): reductions
- monocyte chemotactic protein-1, effect in words (Obese Zucker rats [5]; [10]): reductions
- C-reactive protein, effect in words (Obese Zucker rats [5]; [11]): reducing; also recorded: reductions
- adiponectin levels, effect in words (Obese Zucker rats [5]; [11]): increases
- intracellular adhesion molecule, effect in words (Obese Zucker rats [5]; [11]): reducing
- monocyte chemotactic protein-1, effect in words (Obese Zucker rats [5]; [11]): reducing; also recorded: reductions
- Leptin (Obese Zucker rats [5]): 407.32 pg/mL
- RBP-4 (Obese Zucker rats [5]): 49670.13 ng/mL
- C-reactive protein vs comparators, in words (Obese Zucker rats [5]; [12]): decreased levels
- ICAM vs comparators, in words (Obese Zucker rats [5]; [12]): decreased levels
- adiponectin vs comparators, in words (Obese Zucker rats [5]; [12]): increased levels
- MCP-1 vs comparator, in words (Obese Zucker rats [5]; over chromium picolinate): lower levels
- Adiponectin (Obese Zucker rats [5]): 12732.11 ng/mL
- CRP (Obese Zucker rats [5]): 569.96 ng/mL
- ICAM (Obese Zucker rats [5]): 17057.51 pg/mL
- MCP-1 (Obese Zucker rats [5]): 2829.17 pg/mL
- fasting glucose vs GTF complex, in words (Obese Zucker rats [6]; [9]): decreased levels
- glycosylated hemoglobin vs GTF complex, in words (Obese Zucker rats [6]; [9]): decreased levels
- red blood cell lipid peroxidation vs GTF complex, in words (Obese Zucker rats [6]; [9]): decreased levels
- vitamin C vs GTF complex, in words (Obese Zucker rats [6]; [9]): increased levels
- RBC Lipid Peroxidase (Obese Zucker rats [6]): 1.81 nmol/mL
- blood vitamin C levels, effect in words (Obese Zucker rats [6]; [10]): elevation
- fasting glucose, effect in words (Obese Zucker rats [6]; [10]): reductions
- glycosylated hemoglobin, effect in words (Obese Zucker rats [6]; [10]): reductions
- red blood cell lipid peroxidation, effect in words (Obese Zucker rats [6]; [10]): reductions
- blood vitamin C levels, effect in words (Obese Zucker rats [6]; [11]): increased
- fasting glucose, effect in words (Obese Zucker rats [6]; [11]): reducing
- glycosylated hemoglobin, effect in words (Obese Zucker rats [6]; [11]): reducing
- red blood cell lipid peroxidation, effect in words (Obese Zucker rats [6]; [11]): reducing; also recorded: reduced
- Fasting Glucose (Obese Zucker rats [6]): 446.24 mg/dL
- GSH (Obese Zucker rats [6]): 4.74 µmol/g
- HbA1c (Obese Zucker rats [6]): 14.76%
- fasting glucose vs comparators, in words (Obese Zucker rats [6]; [12]): decreased levels
- glycosylated hemoglobin vs comparators, in words (Obese Zucker rats [6]; [12]): decreased levels
- vitamin C vs comparators, in words (Obese Zucker rats [6]; [12]): increased levels
- red blood cell lipid peroxidase vs comparator, in words (Obese Zucker rats [6]; over chromium picolinate): lower levels
- Vitamin C (Obese Zucker rats [6]): 0.18 mg %

Compound: N[C@@H](CS)C(=O)O [Cys, Cysteine, reference compound]
- ALT (Alanine Aminotransferease) (Obese Zucker rats [1]): 119.20 u/L
- AP (Alkaline phosphatase) (Obese Zucker rats [1]): 36.40 u/L
- AST (Aspartate Aminotransferase) (Obese Zucker rats [1]): 218.20 u/L
- BUN (Blood Urea Nitrogen) (Obese Zucker rats [1]): 18.50 mg/dL
- CRT (Creatinine) (Obese Zucker rats [1]): 0.42 mg/dL
- Total Bilirubin (Obese Zucker rats [1]): 0.00 mg/dL
- Food Intake 5 wks (Obese Zucker rats [2]): 39.40 g/day
- Food Intake 7 wks (Obese Zucker rats [2]): 39.87 g/day
- HDL (Obese Zucker rats [3]): 68.26 mg/dL
- Total Cholesterol (Obese Zucker rats [3]): 183.58 mg/dL
- Triglyceride (Obese Zucker rats [3]): 503.57 mg/dL
- IL-6 (Obese Zucker rats [4]): 95.33 ± 2.33 pg/mL
- TNFα (Obese Zucker rats [4]): 24.28 ± 3.84 pg/mL
- cAMP (Obese Zucker rats [4]): 32.94 ± 1.79 pmol/mL
- OxyDNA (Obese Zucker rats [4]): 54.56 ± 5.69 ng/mL
- Leptin (Obese Zucker rats [5]): 477.65 pg/mL
- RBP-4 (Obese Zucker rats [5]): 50915.00 ng/mL
- Adiponectin (Obese Zucker rats [5]): 11532.37 ng/mL
- CRP (Obese Zucker rats [5]): 551.39 ng/mL
- ICAM (Obese Zucker rats [5]): 18512.88 pg/mL
- RBC Lipid Peroxidase (Obese Zucker rats [6]): 2.34 nmol/mL
- Fasting Glucose (Obese Zucker rats [6]): 483.49 mg/dL
- GSH (Obese Zucker rats [6]): 4.70 µmol/g
- HbA1c (Obese Zucker rats [6]): 15.17%
- Vitamin C (Obese Zucker rats [6]): 0.13 mg %

Compound: chromium polynicotinate
- chromium absorbed (average) [8]: 0.2 µg

Compound: Chromium Dinicotiante Glutamate [Cr(nic)2Glu]
- Food Intake 5 wks (Obese Zucker rats [2]): 37.51 g/day
- Food Intake 7 wks (Obese Zucker rats [2]): 39.92 g/day
- BUN/CRT Ratio (Obese Zucker rats [7]; obese Zucker rats, mean ± SE): 44.71
- HDL (Obese Zucker rats [3]): 65.57 mg/dL
- Total Chol/HDL (Obese Zucker rats [3]): 2.94 ratio
- Total Cholesterol (Obese Zucker rats [3]): 192.14 mg/dL
- Triglyceride (Obese Zucker rats [3]): 666.50 mg/dL
- IL-6 (Obese Zucker rats [4]): 89.50 ± 3.22 pg/mL
- cAMP (Obese Zucker rats [4]): 29.97 ± 1.43 pmol/mL
- OxyDNA (Obese Zucker rats [4]): 43.62 ± 2.69 ng/mL
- Leptin (Obese Zucker rats [5]): 378.02 pg/mL
- RBP-4 (Obese Zucker rats [5]): 46720.00 ng/mL
- Adiponectin (Obese Zucker rats [5]): 12446.67 ng/mL
- CRP (Obese Zucker rats [5]): 519.94 ng/mL
- ICAM (Obese Zucker rats [5]): 16980.59 pg/mL
- MCP-1 (Obese Zucker rats [5]): 3197.58 pg/mL
- RBC Lipid Peroxidase (Obese Zucker rats [6]): 2.30 nmol/mL
- Fasting Glucose (Obese Zucker rats [6]): 490.43 mg/dL
- GSH (Obese Zucker rats [6]): 5.05 µmol/g
- HbA1c (Obese Zucker rats [6]): 14.69%
- Vitamin C (Obese Zucker rats [6]): 0.14 mg %

— US9700546B2, “Trivalent chromium compounds, compositions and methods of use” (INTERHEALTH NUTRACEUTICALS, INC., priority 2006, dated 2017)
